The values below come from patent US3976770A, “Sar'-(OMe)Thr^8 Angiotensin II as an angiotensin II antagonist” (priority 1975, dated 1976).

Where only a bound is given, the exact number is not on record here.

Data set [1] concerns blood pressure. Briefly: in vivo pressor response on infusion into anesthetized, vagotomized rats. The conditions noted are these: scale set artificially at 100 for angiotensin II. The method, then:
In the in vivo assays, rats were anesthetized with sodium amytal and further treated with 0.6 mg atropine and pentolinium tartrate. They were vagotomized and direct recording of the blood pressure was measured through the carotid artery, while the femoral artery was used for infusing the desired dose over a period of 30 minutes in a physiological saline solution.
The dose-response curves of angiotensin II at 0.9 to 54 ng/kg/min. were compared by linear regression analysis with those of the antagonist at doses of 1, 10, 100 and 1000 ng/kg/min. Infusion of the above antagonist into rats thus prepared led to the initial transient pressor response of 0.48 on a scale set artificially at 100 for angiotensin II using the same system.

Data set [2] concerns pressor response of angiotensin II. Briefly: blocking of the pressor response of angiotensin II in ganglion blocked rats. The data set is classed as in vivo. On the procedure: For determining its antagonistic properties the compound was infused intravenously in ganglion blocked rats at a dose level of 125, 250, 500, 1250 ng/kg/min. The blocking effect of the compound was calculated from the dose-response curve of angiotensin II before and during the infusion of the analog. General procedure adopted for this assay has been described by Bumpus et al., Circ. Res. 32-33 (Supplement I), I-150 (1973). […] The dose-ratio obtained was 62.50 ± 14.93 at a dose-level of 250 ng/kg/min.

Data set [3] relates to acute unilateral renal hypertensive rats. Briefly: blood pressure in acute unilateral renal hypertensive rats. The data set is classed as in vivo. The following applies: intravenous infusion.
The nature of data set [4]: water solubility and storage of solution. The data set is classed as physicochemical. On the procedure: Since the above compound is particularly suitable for injection or infusion, it is particularly valuable that the compound is watersoluble. A suitable dosage unit can be prepared by simply dissolving the above compound in water or physiological saline at a concentration of between 50 and 6000 ng/ml. […] A commonly employed buffer for an injectable solution is Tris(hydroxymethyl) aminomethane but simple salts such as sodium phosphate or acetate can be used. Preferably, the vehicle or medium in which the compound of Formula I is dissolved for an injectable or infusable solution is buffered to a pH of 7 to 7.5.

A short description of data set [5]: duration of action after i.m. injection of an oil solution. The conditions noted are these: single i.m. injection, dissolved in oil. It counts as in vivo. On the procedure: The duration of action of the compound can be prolonged by injecting an oil solution intramuscularly. Oils suitable for this purpose are cod liver oil, sesame oil, refined coconut oil, etc. Antagonistic effects are thus observed for 24 hours or longer after a single i.m. injection of the drug dissolved in such an oil.

For the compound `CC[C@H](C)[C@H](NC(=O)[C@H](Cc1ccc(O)cc1)NC(=O)[C@@H](NC(=O)[C@H](CCCNC(=N)N)NC(=O)CNC)C(C)C)C(=O)N[C@@H](Cc1cnc[nH]1)C(=O)N1CCC[C@H]1C(=O)N[C@H](C(=O)O)[C@@H](C)OC` [Formula I, Sar'-(OMe)Thr^8 Angiotensin II], the “initial transient pressor response” value in data set [1] is recorded as 0.48. The dose-ratio in data set [2] (dose-level of 250 ng/kg/min, intravenous infusion, ganglion blocked rats) was 62.50 ± 14.93. Besides, in data set [2] (intravenous infusion into rats in a very small amount), the “pressor effect of angiotensin II” value is listed as “inhibited”. Further, the “dose level at which the pressor response of angiotensin II was blocked” value in data set [2] (intravenous infusion, ganglion blocked rats) was ≥ 125 ng/kg/min. Moreover, the blood pressure entry in data set [3] was “capable of reducing blood pressure”. Besides, the water solubility entry in data set [4] is “watersoluble”. Besides, the “storage of solution without deterioration” value in data set [4] (solution in water or physiological saline, 50-6000 ng/ml, proper conditions) is reported as “several weeks without deterioration”. Besides, the “duration of antagonistic effects” value in data set [5] was ≥ 24 h.
